Structures can show the parent of a compound that is named as a salt. Where two headings read alike, the source gives them in different places.
Test system: passive cutaneous anaphylaxis (PCA) reaction
Assay: passive cutaneous anaphylaxis (PCA) test, i.v. or oral administration
Assay type: in vivo, male Charles River Wistar rats
Details: Rattus norvegicus, read-out: degree (%) of protection, PCA test
Procedure: In the PCA test, normal animals are injected intradermally (i.d.) with antibodies contained in serum obtained from actively sensitized animals. The animals are then challenged intravenously with antigen mixed with a dye such as Evans' Blue. The increased capillary-permeability caused by the antigen-antibody reaction causes the dye to leak from the site of the antibody injection. The test animals are then asphyxiated and the intensity of the reaction determined by measuring the diameter and intensity of the blue coloration on the inner surface of the animals skin. […] The ability of agents to interfere with PCA reactions is measured in male Charles River Wistar rats, 170-210 g. […] Hyperimmune antisera to hen egg albumin is prepared according to Orange, et al., J. Exptl. […] Forty-eight hours prior to antigen challenge the reaginic antisera is injected intradermally (i.d.) into the shaved skin of a normal rat's back; 5 hours before challenge the hyperimmune antisera is similarly injected; 5 hours later, at a third site, 60 mcg. histamine dihydrochloride is injected i.d. as a check for antihistaminic and unspecific types of blockage; the compounds of the instant invention or saline are then administered i.v. and immediately followed by 2.5 mg. Evan's blue dye and 5 mg. egg albumin in saline. In the case of oral administration Evan's blue dye and egg albumen are given five minutes after administration of the drug. Thirty minutes later the animals are asphyxiated using chloroform and the skin of the back removed and reversed for observation. A score is assigned each injection site equal to the product of the diameter of the site in mm. and a grade of 0.1, 0.5, 1, 2, 3 or 4 proportional to intensity of dye coloration. The scores for a given injection site are summed for each group of 8 animals and compared to the saline treated controls. The difference is expressed as percent blockade due to the compound employed. […] Disodium cromoglycate, a commerial antiallergy agent, is included for comparison. [drawing 3]

| SMILES | inhibition in vivo at 0.003 mg/kg (iv, I.V.) | inhibition in vivo at 0.03 mg/kg (iv, I.V.) | inhibition in vivo at 3 mg/kg (iv, I.V.) | inhibition in vivo at 3 mg/kg (Oral) | inhibition in vivo at 10 mg/kg (Oral) | inhibition in vivo at 0.3 mg/kg (iv, I.V.) | inhibition in vivo at 30 mg/kg (Oral) | other results |
| --- | --- | --- | --- | --- | --- | --- | --- | --- |
| CCOC(=O)c1nc2nc3cc(OCC)c(OCC)cc3cc2c(=O)[nH]1 [COOC2 H5/H/H/OC2 H5/OC2 H5/H] | 21% | 60% | 100% | 64% | 81% | – | – | inhibition in vivo at 0.01 mg/kg (iv, I.V.): 43%; inhibition in vivo at 0.1 mg/kg (iv, I.V.): 90%; inhibition in vivo at 0.3 mg/kg (Oral): 42%; inhibition in vivo at 1 mg/kg (Oral): 40% |
| CCOC(=O)c1nc2nc3cc(OCc4ccccc4)c(OCC)cc3cc2c(=O)[nH]1 [COOC2 H5/H/H/OC2 H5/OC7 H7/H] | – | – | 71% | – | 0% | 30% | 0% | inhibition in vivo at 0.1 mg/kg (iv, I.V.): 3% |
| CCOC(=O)c1nc2nc3cc(OC)c(OCC)cc3cc2c(=O)[nH]1 [COOC2 H5/H/H/OC2 H5/OCH3/H] | 50% | 85% | 100% | 83% | 92% | – | – | inhibition in vivo at 0.01 mg/kg (iv, I.V.): 72%; inhibition in vivo at 0.1 mg/kg (iv, I.V.): 99%; inhibition in vivo at 0.3 mg/kg (Oral): 56%; inhibition in vivo at 1 mg/kg (Oral): 76% |
| CCOC(=O)c1nc2nc3ccc(OCc4ccccc4)cc3cc2c(=O)[nH]1 [COOC2 H5/H/H/OC7 H7/H/H, ethyl 7-benzyloxypyrimido-[4,5-b]quinolin-4(3H) one-2-carboxylate] | – | – | 85% | 3% | 60% | 23% | – | – |
| CCOC(=O)c1nc2nc3ccc(OC)cc3cc2c(=O)[nH]1 [COOC2 H5/H/H/OCH3/H/H, Ethyl 7-Methoxypyrimido[4,5-b]-Quinolin-4(3H)-One-2-Carboxylate] | – | – | 100% | 32% | 43% | 87% | – | inhibition in vivo at 0.1 mg/kg (iv, I.V.): 68% |
| CCOC(=O)c1nc2nc3c(OC)cc(OC)cc3cc2c(=O)[nH]1 [COOC2 H5/H/H/OCH3/H/OCH3] | – | 14% | 97% | – | – | 38% | 41% | – |
| CCOC(=O)c1nc2nc3cc(OCC)c(OC)cc3cc2c(=O)[nH]1 [COOC2 H5/H/H/OCH3/OC2 H5/H, Ethyl 7-methoxy-8-ethoxypyrimido[4,5-b]quinoline-4(3H)-one-2-carboxylate] | 66% | 85% | 97% | 52% | 73% | – | 80% | inhibition in vivo at 0.01 mg/kg (iv, I.V.): 57%; inhibition in vivo at 0.1 mg/kg (iv, I.V.): 94%; inhibition in vivo at 0.3 mg/kg (Oral): 31%; inhibition in vivo at 1 mg/kg (Oral): 44% |
| CCOC(=O)c1nc2nc3cc(OCc4ccccc4)c(OC)cc3cc2c(=O)[nH]1 [COOC2 H5/H/H/OCH3/OC7 H7/H, ethyl 7-methoxy-8-benzyloxypyrimido[4,5-b]quinolin-4(3H)one-2-carboxylate] | – | – | 94% | – | – | 23% | – | – |
| CCOC(=O)c1nc2nc3c(OC)c(OC)c(OC)cc3cc2c(=O)[nH]1 [COOC2 H5/H/H/OCH3/OCH3/OCH3] | – | 33% | 88% | – | 0% | 23% | – | – |
| CCOC(=O)c1nc2nc3cc(O)c(OC)cc3cc2c(=O)[nH]1 [COOC2 H5/H/H/OCH3/OH/H, Ethyl 7-Methoxy-8-Hydroxypyrimido[4,5-b]Quinolin-4(3H)One-2-Carboxylate] | 0% | – | 100% | – | – | 100% | – | – |
| CCOC(=O)c1nc2nc3ccc(O)cc3cc2c(=O)[nH]1 [COOC2 H5/H/H/OH/H/H, ethyl 7-hydroxypyrimido [4,5-b]quinolin-4(3H)one-2-carboxylate hemitrifluoroacetate] | – | 21% | – | 4% | 13% | 92% | – | – |
| CCOC(=O)c1nc2nc3cc(OC)c(O)cc3cc2c(=O)[nH]1 [COOC2 H5/H/H/OH/OCH3/H, Ethyl 7-Hydroxy-8-Methoxypyrimido[4,5-b]Quinolin-4(3H)One-2-Carboxylate Trifluoroacetate] | 94% | 97% | – | – | – | – | 6% | inhibition in vivo at 0.0003 mg/kg (iv, I.V., 0.0003 mg/kg): 38%; inhibition in vivo at 0.01 mg/kg (iv, I.V.): 98% |
| CCOC(=O)c1nc2nc3ccc(SC)cc3cc2c(=O)[nH]1 [COOC2 H5/H/H/SCH3/H/H, Ethyl 7-Methylthiopyrimido[4,5-b]quinolin-4(3H)-One-2-Carboxylate] | – | 8% | 88% | 21% | 66% | 91% | 100% | inhibition in vivo at 1 mg/kg (Oral): 0% |
| CCOC(=O)c1nc2nc3ccc([S+](C)[O-])cc3cc2c(=O)[nH]1 (stereo not shown) [COOC2 H5/H/H/SOCH3/H/H, Ethyl 7-Methylsulfinylpyrimido[4,5-b]quinoline-4(3H)-One-2-Carboxylate] | – | 0% | 100% | – | – | 58% | 12% | – |
| CCOC(=O)c1nc2nc3c(OC)ccc(OC)c3cc2c(=O)[nH]1 [COOC2 H5/H/OCH3/H/H/OCH3] | – | 0% | 100% | – | – | 25% | 23% | – |
| COc1cc2cc3c(=O)[nH]c(C(=O)OCCO)nc3nc2cc1OC [COOCH2 CH2 OH/H/H/OCH3/OCH3/H, 2-hydroxyethyl 7,8-Dimethoxy-pyrimidin[4,5-b]quinolin-4-(3H)-One-2-Carboxylate] | – | 92% | 97% | – | 65% | 94% | – | – |
| O=C(O)c1nc2cc3ccccc3cc2c(=O)[nH]1 [COOH/H/H/H/H (Formula II)] | – | – | 36% | – | 33% | – | 0% | inhibition in vivo at 1 mg/kg (iv, I.V.): 14%; inhibition in vivo at 10 mg/kg (iv, I.V.): 100%; inhibition in vivo at 100 mg/kg (Oral): 9% |
| O=C(O)c1nc2nc3ccc(O)cc3cc2c(=O)[nH]1 [COOH/H/H/OH/H/H, 7-hydroxypyrimido[4,5-b]quinolin-4(3H)one-2-carboxylic acid] | 4% | 91% | 100% | – | – | – | – | – |
| COc1cc2nc3nc(C(=O)O)[nH]c(=O)c3cc2cc1O [COOH/H/H/OH/OCH3/H, 7-Hydroxy-8-Methoxypyrimido[4,5-b]Quinolin-4(3H)One-2-Carboxylic Acid] | 90% | – | 100% | – | – | – | – | inhibition in vivo at 0.01 mg/kg (iv, I.V.): 86% |
| O=C(O)c1nc2nc3ccccc3cc2c(=O)[nH]1 [COONa/H/H/H/H/H, Pyrimido[4,5-b]Quinolin-4(3H)-One-2-Carboxylic Acid Disodium Salt] | – | – | – | – | 0% | 68% | – | inhibition in vivo at 1 mg/kg (iv, I.V.): 92%; inhibition in vivo at 100 mg/kg (Oral): 96% |
| COc1cc2cc3c(=O)[nH]c(C(=O)O)nc3nc2cc1OC [COONa/H/H/OCH3/OCH3/H] | – | 96% | – | – | 17% | – | – | inhibition in vivo at 0.01 mg/kg (iv, I.V.): 71%; inhibition in vivo at 0.1 mg/kg (iv, I.V.): 100% |
